≈ marks a conversion by molar mass, not a printed value. Where a name gives a salt, the structure may show the parent alone.
Key:
Format in all cases: physicochemical
[1] = Solubility in 2-pyrrolidone; settings: 25° C., mixed for 30 min, Licofelone in supernatant by HPLC
Procedure: Approx. 500 mg Licofelone (free acid) or the corresponding salt (examples 1A and 2) were suspended in 1 ml 2-pyrrolidone and mixed for 30 min. The temperature was maintained at 25° C. After centrifugation the concentration of Licofelone in the supernatant was determined by HPLC with UV detection.

[2] = Solubility in Fasted State Simulated Intestinal Fluid (FaSSIF); settings: after 15 min, HPLC; for solubility in 30 ml FaSSIF, conc.: 30 ml FaSSIF pH 6.5, approx. 50 mg (as free acid); for solubility in 100 ml FaSSIF, conc.: 100 ml FaSSIF pH 6.5, approx. 50 mg (as free acid)
Procedure: FaSSIF was prepared according to the literature (e.g. Marques M, Dissolution Technologies, May 2004). […] The pH value was adjusted to 6.5 using 1 N NaOH. The ready-to-use FaSSIF was prepared by dissolving 3.3 g sodium taurocholate in 500 ml blank FaSSIF. Then, 11.8 ml of a solution of 100 mg/ml lecithin in dichloromethane was added and the thereafter, the solvent dichloromethane was removed under vacuum at 40° C. Thereafter the clear solution was transferred into a graduated 2 l flask and made up to volume with blank FaSSIF.
Solubility studies were performed with Licofelone (free acid), Licofelone tromethamol salt (example 2) and Licofelone choline salt (example 1A). The test articles were placed in a beaker, FaSSIF and a magnetic stirring bar were added and the mixture was stirred using a magnetic stirrer. After 15 min, samples were withdrawn, filtered and the clear filtrate was analyzed by HPLC to determine the concentration of Licofelone.
The dissolution test was performed in 100 ml FaSSIF and 30 ml FaSSIF. The lower volume was selected in order to simulate the physiological ratio between drug and intestinal fluid volume.

[3] = Storage stability at elevated temperatures (sum of known and unknown impurities)
Procedure: The raw materials (a) Licofelone, (b) Licofelone choline salt (example 1A) and (c) Licofelone tromethamine salt (example 2) were stored in open containers at 40, 50, 60 and 70° C. as well as at 40° C. with 75% relative humidity. Samples were analyzed after storage periods of 4 and 8 weeks. A validated method was applied for quantification of the five known impurities as well as of unknown impurities.

[4] = stored at elevated temperatures for several weeks

Row | solubility [1] | solubility in 30 ml FaSSIF, conc. [2] | solubility in 100 ml FaSSIF, conc. [2] | stability on storage ([3]; stored at moderately elevated temperatures for several weeks) | SMILES | stability on storage [3, 4]
1 | 47000 µg/mL (≈ 124000 µM) | 7 µg/mL (≈ 18.4 µM) | 7 µg/mL (≈ 18.4 µM) | – | CC1(C)Cc2c(-c3ccccc3)c(-c3ccc(Cl)cc3)c(CC(=O)O)n2C1 [Licofelone (free acid), 6-(4-chlorophenyl)-2,2-dimethyl-7-phenyl-2,3-dihydro-1H-pyrrolizin-5-ylacetic acid, reference compound] | undergoes degradation
2 | 274000 µg/mL | 222 µg/mL | 228 µg/mL | more stable than the free acid | CC1(C)Cc2c(-c3ccccc3)c(-c3ccc(Cl)cc3)c(CC(=O)O)n2C1 [Licofelone choline salt, 6-(4-chlorophenyl)-2,2-dimethyl-7-phenyl-2,3-dihydro-1H-pyrrolizin-5-ylacetic acid choline salt] | –
3 | 66000 µg/mL | 149 µg/mL | 165 µg/mL | – | CC1(C)Cc2c(-c3ccccc3)c(-c3ccc(Cl)cc3)c(CC(=O)O)n2C1 [Licofelone tromethamine salt, 6-(4-chlorophenyl)-2,2-dimethyl-7-phenyl-2,3-dihydro-1H-pyrrolizin-5-ylacetic acid tromethamine salt] | more stable than the free acid and the choline salt
